Structures are written as SMILES.

The target in series [1] is T1, Tsg101 (Homo sapiens, UniProt Q99816).
T1 sequence (Q99816 2-145 limits assumed): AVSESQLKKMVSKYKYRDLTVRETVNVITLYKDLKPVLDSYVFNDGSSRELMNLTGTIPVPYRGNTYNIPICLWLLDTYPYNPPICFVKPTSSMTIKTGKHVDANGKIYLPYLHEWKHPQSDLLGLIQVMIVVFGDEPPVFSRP
As to the kind of experiment: NWU screening / in vitro binding assay. To be noted: Esomeprazole and tenatoprazole compared. An excerpt:
Pantoprazole, Lansoprazole/Dexlansoprazole (dexlansoprazole is the active enantiomer of the racemic lansoprazole), and Rabeprazole were in the NWU screen but were not considered hits.

The subject of series [2] is HIV-1 NL4-3 P7L. Kind of series: Electron microscopy of budding morphologies, WT- or P7L-NL4-3. In kind it is cell-based. To be noted: 50 μM N16. The method, then:
FIG. 15A-D. N16 inhibits HIV-1 NL4-3 and Gag VLP production. A) Effect on virus production. Virus particles from N16-treated 293T cells transfected with pNL4-3 as determined by ELISA assay. Top, The compound was added 6 hr prior to DNA transfection and tissue culture media was harvested 24 hr later. Bottom, The compound was added at the indicated concentration 24 hr after DNA transfection and tissue culture media was harvested 24 hr later. Assay values were normalized to that of the DMSO carrier control. B) Effect on virus infectivity. Infectious viral particles per ng p24 as determined by MAGI assay. C) Left, Electron microscopy of particles at cell surface at 24 hr post-N16 addition; Right, Quantitative analysis of budding morphologies. Cells expressing WT- or P7L-NL4-3 were exposed to DMSO carrier or 50 μM N16. Arrows indicate emerging ‘Early’ buds. D) Effects on Gag VLP production. Top, Western blot analysis. Cells treated at the indicated concentration were transfected with DNA encoding Gag-HA. […] Bottom, Quantitative analysis. […]
Electron microscopy was used to identify the event arrested by N16 treatment. […] Treatment of P7L with N16 blocked the residual particle release that the mutation permits (mediated by Alix, an ESCRT adaptor, Fujii, K. et al. (2009)) and shifted the predominant form detected from ‘Tethered’ to ‘Early’.

Series [3] relates to cells. As to the kind of experiment: Cytotoxicity / cell metabolic activity on exposure to N16. The series is classed as cell-based. An excerpt:
We investigated the specificity of the inhibitory effect. F15 and N16 impaired Tsg101-co-localization with Gag on the plasma membrane (c.f, FIG. 19) and reduced release of the VLPs assembled by Gag (c.f, FIG. 15). […] Cell metabolic activity was not affected after exposure to N16 for 24 hr; it decreased by less than 10% after exposure to N16 for 48 hr (not shown). Tsg101 localization to the midbody of dividing cells requires its recruitment to that location by centrosomal protein of 55k (CEP55) which binds a site in the Tsg101 Pro-rich domain (aa 154-166) (Lee, H. H., et al. (2008)). Finding this function unaffected at a concentration inhibitory to virus budding is consistent with the lack of any indication that cell division was reduced in the presence of N16. The lack of effect on this function also supports the specificity of N16 targeting as limited to functions of the Tsg101 UEV domain. EGF ligand-binding to EGFR on the cell surface signals receptor internalization, ubiquitination, and sequential ESCRT 0-, I-, II- and III-mediated transport to degradative compartments, ultimately lowering the EGFR steady-state level (Tomas, A., et al. (2014)). This trafficking requires the engagement of the P(T/S)AP-binding pocket in the Tsg101 UEV domain with the PSAP motif in hepatocyte growth factor-regulated tyrosine kinase substrate (Hrs), a component of ESCRT-0 (Lu, Q., et al. (2003)). The down-regulation function remained unimpaired at concentrations well above 50 JAM.

Series [4] concerns 293T cells. Kind of series: Metabolic activity, WST-1 assay, 293T cells. In kind it is cell-based. Conditions: Homo sapiens, HEK-293T; 293T, 24 hr in N16, WST-1; read-out: IC50 (95% confidence levels), metabolic activity. The method, then:
FIG. 20A-C. N16 inhibition is virus-specific. A) N16 IC50 for Hela and 293T cells. […] Values were calculated by measuring metabolic activity (WST-1 Assay, Roche Applied Science) after cells were grown for 24 hr in N16. Data points represent the mean of 2 assays, 3 time points each for each cell line. […] Values in the absence or presence of N16 (50 uM) were 12% and 13%, respectively). C) N16 effect on EGF-stimulated EFGR degradation. Cells maintained for 24 hr in media containing DMSO alone or DMSO and N16 were stimulated with EGF ligand for a 90 min period and then assessed for EGFR steady-state level by Western analysis. EGFR levels for unstimulated and stimulated sample pairs are shown. A) n=2; B) n=2; C) n=2.
FIG. 27A-C. Effect of N-Acetyl Cysteine (NAC) on N16-mediated inhibition of VLP production and intracellular Gag accumulation. […] A concentration of 3 mM NAC was therefore used to test the effect of the antioxidative reagent on the N16 inhibitory effect. N16 (0, 12, 25, 50, 75, and 100 uM) was added 8.5 hr prior to transfection with pNL4-3ΔEnv. Cells were harvested 16 hr later. […] C) Quantitative analysis. n=2.
Cells were grown in 96-well trays for 24 hr with increasing levels of drug, metabolic activity was measured using WST-1colorimetric assay (Roche), and IC50 values were calculated (Prism 6, Graph Pad Software Inc.).

As to `COc1ccc2nc([S@@+]([O-])Cc3ncc(C)c(OC)c3C)[nH]c2c1` [F15, esomeprazole], the “binding in the in vitro binding assay” value in series [1] is listed as “comparable binding”.

In the case of `COc1ccc2[nH]c([S+]([O-])Cc3ncc(C)c(OC)c3C)nc2n1` (stereo not drawn) [N16, tenatoprazole], the “residual particle release of P7L” value in series [2] was “blocked”. Further, the cytotoxicity entry in series [3] (50 μM, 24 hr exposure) was “did not induce detectable cytotoxicity”. Besides, in series [3] (exposure to N16 for 24 hr), the cell metabolic activity entry was “not affected”. For the same compound, the “decrease of cell metabolic activity” value in series [3] (exposure to N16 for 48 hr, not shown) was “less than 10%”. In addition, the IC50 – broadly, the point on the concentration scale where inhibition reaches its midpoint – in series [4] lay within 99.8 to 139 µM.

These data come from patent publication US12059413B2, “Methods of inhibiting viruses using compositions targeting TSG101-ubiquitin interaction” (The Research Foundation for the State University of New York, priority 2016, dated 2024).
